Measurements taken from US10780090B2, “Heteroaryl compounds useful as inhibitors of SUMO activating enzyme” (Millennium Pharmaceuticals, Inc., priority 2014, dated 2020).
Where two headings read alike, the source gives them in different places.

Molecular target: recombinant human SAE enzyme (Homo sapiens (Human), UniProt Q9UBT2)
Test: SAE HTRF enzyme assay
Type: biochemical
Conditions: for inhibition at 0.111 µM: read-out: Percent Inhibition
Method in brief: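 0.11 nM SAE incubated with 0.5 μM ATP, 0.01 μM Ubc9-GST and 0.125 μM Sumo-Flag in HEPES pH 7.5, MgCl2, GSH, BSA, ±inhibitor, 105 min at 24° C. EDTA stop; Eu-cryptate anti-Flag/XL-APC anti-GST HTRF read after 2 h. Values given as single-concentration % inhibition or IC50.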

[1] = SAE inhibition at compound concentration 0.111 μM
[2] = SAE inhibition, class symbols, legend in nM

Chain of recombinant human SAE enzyme (Q9UBT2 whole entry): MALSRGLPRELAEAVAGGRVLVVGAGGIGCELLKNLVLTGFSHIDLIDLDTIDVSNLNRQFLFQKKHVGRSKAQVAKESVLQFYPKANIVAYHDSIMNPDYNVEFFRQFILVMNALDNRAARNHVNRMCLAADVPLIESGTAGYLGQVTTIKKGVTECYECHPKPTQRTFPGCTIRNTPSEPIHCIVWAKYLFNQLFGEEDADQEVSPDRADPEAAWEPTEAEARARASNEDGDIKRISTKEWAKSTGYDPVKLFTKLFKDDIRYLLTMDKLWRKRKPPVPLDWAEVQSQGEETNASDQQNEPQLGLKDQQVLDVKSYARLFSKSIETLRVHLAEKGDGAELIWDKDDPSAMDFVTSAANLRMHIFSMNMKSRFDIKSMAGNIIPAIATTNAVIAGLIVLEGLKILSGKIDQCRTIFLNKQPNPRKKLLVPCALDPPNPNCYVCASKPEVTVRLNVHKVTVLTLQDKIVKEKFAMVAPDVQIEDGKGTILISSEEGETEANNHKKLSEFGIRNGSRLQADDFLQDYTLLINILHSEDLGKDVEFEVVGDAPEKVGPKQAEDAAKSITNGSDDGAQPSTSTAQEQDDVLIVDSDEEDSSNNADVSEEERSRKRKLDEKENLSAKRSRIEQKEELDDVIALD
Chain of recombinant human SAE enzyme (Q9UBE0 whole entry partner): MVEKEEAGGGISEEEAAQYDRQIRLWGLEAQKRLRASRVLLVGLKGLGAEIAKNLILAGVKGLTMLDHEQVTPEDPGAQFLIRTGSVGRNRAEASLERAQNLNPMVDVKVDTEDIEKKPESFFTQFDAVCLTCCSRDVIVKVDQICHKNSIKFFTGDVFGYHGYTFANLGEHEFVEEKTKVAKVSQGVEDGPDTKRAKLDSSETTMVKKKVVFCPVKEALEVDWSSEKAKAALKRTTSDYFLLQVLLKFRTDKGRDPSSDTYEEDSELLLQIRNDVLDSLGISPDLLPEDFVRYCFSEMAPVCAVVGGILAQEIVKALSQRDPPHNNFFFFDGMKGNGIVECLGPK

Molecule | Percent Inhibition (Concentration 0.111 μM) | IC50 (class symbols A/B/C) [nM] | inhibition at 0.111 µM (Concentration 0.111 μM) [%] | other results
Cc1sc(C(=O)c2cncnc2N[C@@H]2C[C@H](COS(N)(=O)=O)[C@@H](O)[C@H]2O)cc1[C@@H]1NCCc2ccc(Br)cc21 (single isomer, unassigned) [I-247b, [(1R,2R,3S,4R)-4-{[5-({4-[(1R)-7-bromo-1,2,3,4-tetrahydroisoquinolin-1-yl]-5-methyl-2-thienyl}carbonyl)pyrimidin-4-yl]amino}-2,3-dihydroxycyclopentyl]methyl sulfamate or [(1R,2R,3S,4R)-4-{[5-({4-[(1S)-7-bromo-1,2,3,4-tetrahydroisoquinolin-1-yl]-5-methyl-2-thienyl}carbonyl)pyrimidin-4-yl]amino}-2,3-dihydroxycyclopentyl]methyl sulfamate] | 98 | < 10 | – | –
CN(C)Cc1cn(Cc2csc(C(=O)c3cncnc3N[C@@H]3C[C@H](COS(N)(=O)=O)[C@@H](O)C3)c2)c2ccccc12 [I-221, {(1R,2S,4R)-4-[(5-{[4-({3-[(dimethylamino)methyl]-1H-indol-1-yl}methyl)-2-thienyl]carbonyl}pyrimidin-4-yl)amino]-2-hydroxycyclopentyl}methyl sulfamate] | – | 100 to 1000 | 30 | –
NS(=O)(=O)OC[C@H]1C[C@@H](Nc2ncncc2C(=O)c2cc([C@@H]3CCc4ccc(Cl)cc43)cs2)C[C@@H]1O (single isomer, unassigned) [I-349a, [(1R,2S,4R)-4-{[5-({4-[(1R)-6-chloro-2,3-dihydro-1H-inden-1-yl]-2-thienyl}carbonyl)pyrimidin-4-yl]amino}-2-hydroxycyclopentyl]methyl sulfamate or [(1R,2S,4R)-4-{[5-({4-[(1S)-6-chloro-2,3-dihydro-1H-inden-1-yl]-2-thienyl}carbonyl)pyrimidin-4-yl]amino}-2-hydroxycyclopentyl]methyl sulfamate] | – | – | – | Percent Inhibition [1]: 42%; IC50 [2]: 100 to 1000 nM
NS(=O)(=O)OC[C@H]1C[C@@H](Nc2ncncc2C(=O)c2cc(Cc3cccc(Cl)c3)c(CC3CCOCC3)s2)C[C@@H]1O [I-110, {(1R,2S,4R)-4-[(5-{[4-(3-chlorobenzyl)-5-(tetrahydro-2H-pyran-4-ylmethyl)-2-thienyl]carbonyl}pyrimidin-4-yl)amino]-2-hydroxycyclopentyl}methyl sulfamate] | – | < 10 | 98 | –
Cc1sc(C(=O)c2cncnc2N[C@@H]2C[C@H](COS(N)(=O)=O)[C@@H](O)C2)cc1C1=NCCc2ccc(Cl)cc21 [I-360, ((1R,2S,4R)-4-{(5-(4-(7-chloro-3,4-dihydroisoquinolin-1-yl)-5-methylthiophene-2-carbonyl)pyrimidin-4-yl)amino)-2-hydroxycyclopentyl)methyl sulfamate] | – | – | – | inhibition at 0.111 µM [1]: 95%; IC50 [2]: < 10 nM
NS(=O)(=O)OC[C@H]1C[C@@H](Nc2ncncc2C(=O)c2cc([C@H](O)c3cccc(Cl)n3)c(Cl)s2)C[C@@H]1O (single isomer, unassigned) [I-2a, [(1R,2S,4R)-4-{[5-({5-chloro-4-[(S)-(6-chloropyridin-2-yl)(hydroxy)methyl]-2-thienyl}carbonyl)pyrimidin-4-yl]amino}-2-hydroxycyclopentyl]methyl sulfamate or [(1R,2S,4R)-4-{[5-({5-chloro-4-[(R)-(6-chloropyridin-2-yl)(hydroxy)methyl]-2-thienyl}carbonyl)pyrimidin-4-yl]amino}-2-hydroxycyclopentyl]methyl sulfamate] | 99 | < 10 | – | –
Cc1sc(C(=O)c2cncnc2N[C@@H]2C[C@H](COS(N)(=O)=O)[C@@H](O)C2)cc1Cc1cccc(Cl)c1 [I-51, {(1R,2S,4R)-4-[(5-{[4-(3-chlorobenzyl)-5-methyl-2-thienyl]carbonyl}pyrimidin-4-yl)amino]-2-hydroxycyclopentyl}methyl sulfamate] | – | < 10 | 100 | –
NS(=O)(=O)OC[C@H]1C[C@@H](Nc2ncncc2C(=O)c2cc([C@@H]3OCCc4cnc(Cl)cc43)c(Cl)s2)C[C@@H]1O (mixture of isomers) [I-323, [(1R,2S,4R)-4-{[5-({5-chloro-4-[(1R)-7-chloro-3,4-dihydro-1H-pyrano[4,3-c]pyridin-1-yl]-2-thienyl}carbonyl)pyrimidin-4-yl]amino}-2-hydroxycyclopentyl]methyl sulfamate and [(1R,2S,4R)-4-{[5-({5-chloro-4-[(1S)-7-chloro-3,4-dihydro-1H-pyrano[4,3-c]pyridin-1-yl]-2-thienyl}carbonyl)pyrimidin-4-yl]amino}-2-hydroxycyclopentyl]methyl sulfamate] | – | – | – | Percent Inhibition [1]: 90%; IC50 [2]: 10 to 100 nM
Cc1sc(C(=O)c2cncnc2N[C@@H]2C[C@H](COS(N)(=O)=O)[C@@H](O)C2)cc1[C@@H]1OCCc2ccc(Cl)c(F)c21 (mixture of isomers) [I-303, [(1R,2S,4R)-4-{[5-({4-[(1R)-7-chloro-8-fluoro-3,4-dihydro-1H-isochromen-1-yl]-5-methyl-2-thienyl}carbonyl)pyrimidin-4-yl]amino}-2-hydroxycyclopentyl]methyl sulfamate and [(1R,2S,4R)-4-{[5-({4-[(1S)-7-chloro-8-fluoro-3,4-dihydro-1H-isochromen-1-yl]-5-methyl-2-thienyl}carbonyl)pyrimidin-4-yl]amino}-2-hydroxycyclopentyl]methyl sulfamate] | – | – | – | Percent Inhibition [1]: 99%; IC50 [2]: < 10 nM
C[C@H](O)c1cc(C(=O)c2cncnc2N[C@@H]2C[C@H](COS(N)(=O)=O)[C@@H](O)C2)sc1Cl (mixture of isomers) [I-226, [(1R,2S,4R)-4-{[5-({5-Chloro-4-[(1S)-1-hydroxyethyl]-2-thienyl}carbonyl)pyrimidin-4-yl]amino}-2-hydroxycyclopentyl]methyl sulfamate and [(1R,2S,4R)-4-{[5-({5-Chloro-4-[(1R)-1-hydroxyethyl]-2-thienyl}carbonyl)pyrimidin-4-yl]amino}-2-hydroxycyclopentyl]methyl sulfamate] | 33 | 100 to 1000 | – | –
CO[C@H](c1cccc(Cl)c1)c1cc(C(=O)c2cncnc2N[C@@H]2C[C@H](COS(N)(=O)=O)[C@@H](O)C2)sc1Cl (single isomer, unassigned) [I-90b, [(1R,2S,4R)-4-{[5-({5-chloro-4-[(R)-(3-chlorophenyl)(methoxy)methyl]-2-thienyl}carbonyl)pyrimidin-4-yl]amino}-2-hydroxycyclopentyl]methyl sulfamate or [(1R,2S,4R)-4-{[5-({5-chloro-4-[(S)-(3-chlorophenyl)(methoxy)methyl]-2-thienyl}carbonyl)pyrimidin-4-yl]amino}-2-hydroxycyclopentyl]methyl sulfamate] | 92 | 10 to 100 | – | –
Cc1ccccc1OCc1csc(C(=O)c2cncnc2N[C@@H]2C[C@H](COS(N)(=O)=O)[C@@H](O)C2)c1 [I-131, [(1R,2S,4R)-2-hydroxy-4-{[5-({4-[(2-methylphenoxy)methyl]-2-thienyl}carbonyl)pyrimidin-4-yl]amino}cyclopentyl]methyl sulfamate] | – | < 10 | 96 | –
C[C@](N)(c1cccc(Br)c1)c1csc(C(=O)c2cncnc2N[C@@H]2C[C@H](COS(N)(=O)=O)[C@@H](O)[C@H]2O)c1 (single isomer, unassigned) [I-27a, [(1R,2R,3S,4R)-4-{[5-({4-[(1S)-1-amino-1-(3-bromophenyl)ethyl]-2-thienyl}carbonyl)pyrimidin-4-yl]amino}-2,3-dihydroxycyclopentyl]methyl sulfamate or [(1R,2R,3S,4R)-4-{[5-({4-[(1R)-1-amino-1-(3-bromophenyl)ethyl]-2-thienyl}carbonyl)pyrimidin-4-yl]amino}-2,3-dihydroxycyclopentyl]methyl sulfamate] | 96 | < 10 | – | –
C=C(C)[C@@H](O)c1coc(C(=O)c2cncnc2N[C@@H]2C[C@H](COS(N)(=O)=O)[C@@H](O)C2)c1.C=C(C)[C@H](O)c1coc(C(=O)c2cncnc2N[C@@H]2C[C@H](COS(N)(=O)=O)[C@@H](O)C2)c1 (mixture of isomers) [I-197, {(1R,2S,4R)-2-Hydroxy-4-[(5-{4-[(1S)-1-hydroxy-2-methylprop-2-en-1-yl]-2-furoyl}pyrimidin-4-yl)amino]cyclopentyl)methyl sulfamate and {(1R,2S,4R)-2-Hydroxy-4-[(5-{4-[(1R)-1-hydroxy-2-methylprop-2-en-1-yl]-2-furoyl}pyrimidin-4-yl)amino]cyclopentyl}methyl sulfamate] | 69 | 10 to 100 | – | –
NS(=O)(=O)OC[C@H]1C[C@@H](Nc2ncncc2C(=O)c2cc(CN3CCc4ccccc4C3)cs2)C[C@@H]1O [I-167, {(1R,2S,4R)-4-[(5-{[4-(3,4-dihydroisoquinolin-2(1H)-ylmethyl)-2-thienyl]carbonyl}pyrimidin-4-yl)amino]-2-hydroxycyclopentyl}methyl sulfamate] | – | 10 to 100 | 89 | –
NS(=O)(=O)OC[C@H]1C[C@@H](Nc2ncncc2C(=O)c2cc(Cc3cccc(I)c3)cs2)[C@@H](F)[C@@H]1O [I-99, {(1R,2R,3R,4R)-3-fluoro-2-hydroxy-4-[(5-{[4-(3-iodobenzyl)-2-thienyl]carbonyl}pyrimidin-4-yl)amino]cyclopentyl}methyl sulfamate] | – | < 10 | 97 | –
[(1R,2S,4R)-2-hydroxy-4-{[5-({4-[(1R)-2-methyl-2,3-dihydro-1H-isoindol-1-yl]-2-thienyl}carbonyl)pyrimidin-4-yl]amino}cyclopentyl]methyl sulfamate and [(1R,2S,4R)-2-hydroxy-4-{[5-({4-[(1S)-2-methyl-2,3-dihydro-1H-isoindol-1-yl]-2-thienyl}carbonyl)pyrimidin-4-yl]amino}cyclopentyl]methyl sulfamate [I-308] | – | – | – | Percent Inhibition [1]: 98%; IC50 [2]: < 10 nM
